# Assay results from patent publication US8093393B2, “Cationic ceramides, and analogs thereof, and their use for preventing or treating cancer” (MUSC Foundation for Research Development, priority 2004, dated 2012).
# pIC50: −log10 of the molar value. Where two headings read alike, the source gives them in different places.
# Legend:
# UM-SCC-22A cells [1] = experiment: MTT cell survival assay and isobologram studies; format: cell-based, human
# UM-SCC-1 cells = experiment: MTT cell survival assay; format: cell-based, human; details: UM-SCC-1, 96 hr; read-out: IC50, cell survival
# Protocol: (§1) Cell lines and culture conditions. […] Cells were grown in DMEM containing 10% FCS and 1% penicillin/streptomycin at 37° C. in 5% CO2. The Wi-38 human lung fibroblasts were obtained from American Type Culture Collection, and were grown in DMEM as described above. Adult human epidermal keratinocytes were purchased from Cascade Biologics, and were maintained in EpiLife medium with growth supplements as described by the manufacturer.
# (§2) MTT cell survival assay and isobologram studies. […] Triplicate wells were used for each treatment. The final concentration of DMSO (a solvent for conventional ceramides, GMZ and DOX) in the growth medium was less than 0.1% (v/v) which has no effect on cell growth and survival. Pyridinium ceramides were dissolved in sterile water or growth medium. In short, after cells (5-10×10^3/well) were seeded in 96-well-plates for 24 hr, they were treated with increasing concentrations of ceramide analogs for an additional 48 or 96 hr. For combination treatments, ceramides and chemotherapeutic agents (gemcitabine (GMZ) or doxorubicin (DOX)) were added to the growth medium simultaneously during treatment. Isobologram plots were then constructed using IC50 values of the two agents alone or in combination obtained from MTT assays. […]
# UM-SCC12 cells = experiment: MTT cell survival assay; format: cell-based, human; details: UM-SCC12, 96 hr
# Protocol: as §1, §2
# [2] = system: Wi-38 human lung fibroblasts; experiment: MTT cell survival assay, non-cancerous cells; format: cell-based; details: Wi-38 fibroblasts, DMEM; read-out: IC50, cell growth in DMEM
# Protocol: as §1
# (§3) MTT cell survival assay and isobologram studies. […] Triplicate wells were used for each treatment. The final concentration of DMSO (a solvent for conventional ceramides, GMZ and DOX) in the growth medium was less than 0.1% (v/v) which has no effect on cell growth and survival. Pyridinium ceramides were dissolved in sterile water or growth medium. In short, after cells (5-10×10^3/well) were seeded in 96-well-plates for 24 hr, they were treated with increasing concentrations of ceramide analogs for an additional 48 or 96 hr. For combination treatments, ceramides and chemotherapeutic agents (gemcitabine (GMZ) or doxorubicin (DOX)) were added to the growth medium simultaneously during treatment. Isobologram plots were then constructed using IC50 values of the two agents alone or in combination obtained from MTT assays. A straight line joining points on x- and y-axes represent the IC50 concentrations of two agents, and the points representing the IC50 concentrations of the combination of the two agents are represented as scatter plots on the same graphs.
# [3] = system: adult human epidermal keratinocytes (HEK); experiment: MTT cell survival assay, non-cancerous cells; format: cell-based
# Protocol: as §1, §3
# UM-SCC-22A cells [4] = experiment: Apoptotic cell death by annexin V staining; format: cell-based, human
# Source text: Thus, these ceramide analogs appear to exert minimal apoptotic activity on their own, with selective cell cycle arrest in these cells.
# telomerase [5] = experiment: Telomerase activity (TRAP) in treated cells; format: cell-based, human; details: UM-SCC-22A
# Protocol: (§4) FIGS. 13A to 13B. Roles of CCPS on cell cycle profiles, and telomerase activity of UM-SCC-22A cells. (FIG. 13A) The effects of D-e-C6—, D-e-C12- and L-th-C12-pyridinium ceramides (at 1 μM for 48 hr) on cell cycle profiles of UM-SCC-22A cells were determined and compared to that of untreated cells using flow cytometry as described in Materials and Methods. (FIG. 13B) The effects of 0, 100, 250 and 500 nM L-t-C6-Pyr-Cer (LCL-124) (lanes 1-4, respectively) at 96 hr treatment in UM-SCC-22A cells on telomerase activity was assessed using TRAP assay. Lanes 5 and 6 contain positive (+) and negative (−) controls. To examine whether C6-Pyr-Cer inhibits telomerase activity directly, cell extracts (as shown in lane 1) were incubated in the presence of various concentrations of L-th-C6-Pyr-ceramide (LCL-124; 10, 20 and 100 μM) and telomerase activity was determined using TRAP assay (lanes 7-9, respectively). The presence of non-telomeric 36 bp internal standard (IS) in the TRAP assay serves as a control for polymerase chain reaction, and used for quantitation/normalization of the activity of telomerase. The results shown are representative of at least two independent experiments.
# FIGS. 14A to 14D. […] (FIG. 14A) The effects of various chemotherapeutic agents on cell growth in UM-SCC-22A cells were determined using MTT assays, and the IC50 concentrations of each agent were determined from cell growth plots as described. (FIG. 14B) The synergistic effects of DOX and L-th-C6-Pyr-Cer (LCL-124) on cell growth were assessed using isobologram studies as described in Materials and Methods. (FIG. 14C) The effects of 1 μM L-th-C6-Pyr-Cer (LCL-124) or cetyl-pyridinium-bromide, without ceramide conjugate (used as a control) on the growth inhibition potential of GMZ in UM-SCC-22A cells were determined using MTT assays. (FIG. 14D) The effects of GMZ (100 nM), L-th-C6-Pyr-Cer (LCL-124; 1 μM) or GMZ and L-th-C6-Pyr-Cer (LCL-124) (100 nM and 1 μM, respectively) on telomerase activity in UM-SCC-22A cells at 48 hr were examined using TRAP assay, and compared to that of untreated controls (lanes 2, 3, 4 and 1, respectively). The data shown are representative of at least two independent experiments performed in triplicate samples. Standard deviations in each sample were between 0.1-0.5.
# Determination of telomerase activity. Telomerase activity in cell extracts was measured by the PCR-based telomere repeat amplification protocol (TRAP) using TRAPeze kit (Intergen, Gaithersburg, Md.) which includes a 36-bp internal control to allow quantification of activity. In short, the intensity of telomere-specific DNA bands, measured using Quantity One (BioRad) software, were normalized to the intensity of internal control bands for each sample on polyacrylamide gels for quantification.
# telomerase [6] = biological target: T1, telomerase (Homo sapiens, UniProt O14746); experiment: Telomerase activity (TRAP), compound applied directly to cell extracts; format: biochemical; details: 10, 20 and 100 μM
# T1 construct: endogenous in cells; host or cells: UM-SCC-22A
# Protocol: as §4, with “The results shown are representative of at least two independent experiments.” left out
# Determination of telomerase activity. Telomerase activity in cell extracts was measured by the PCR-based telomere repeat amplification protocol (TRAP) using TRAPeze kit (Intergen, Gaithersburg, Md.) which includes a 36-bp internal control to allow quantification of activity. […]
# T1 sequence (O14746 whole entry): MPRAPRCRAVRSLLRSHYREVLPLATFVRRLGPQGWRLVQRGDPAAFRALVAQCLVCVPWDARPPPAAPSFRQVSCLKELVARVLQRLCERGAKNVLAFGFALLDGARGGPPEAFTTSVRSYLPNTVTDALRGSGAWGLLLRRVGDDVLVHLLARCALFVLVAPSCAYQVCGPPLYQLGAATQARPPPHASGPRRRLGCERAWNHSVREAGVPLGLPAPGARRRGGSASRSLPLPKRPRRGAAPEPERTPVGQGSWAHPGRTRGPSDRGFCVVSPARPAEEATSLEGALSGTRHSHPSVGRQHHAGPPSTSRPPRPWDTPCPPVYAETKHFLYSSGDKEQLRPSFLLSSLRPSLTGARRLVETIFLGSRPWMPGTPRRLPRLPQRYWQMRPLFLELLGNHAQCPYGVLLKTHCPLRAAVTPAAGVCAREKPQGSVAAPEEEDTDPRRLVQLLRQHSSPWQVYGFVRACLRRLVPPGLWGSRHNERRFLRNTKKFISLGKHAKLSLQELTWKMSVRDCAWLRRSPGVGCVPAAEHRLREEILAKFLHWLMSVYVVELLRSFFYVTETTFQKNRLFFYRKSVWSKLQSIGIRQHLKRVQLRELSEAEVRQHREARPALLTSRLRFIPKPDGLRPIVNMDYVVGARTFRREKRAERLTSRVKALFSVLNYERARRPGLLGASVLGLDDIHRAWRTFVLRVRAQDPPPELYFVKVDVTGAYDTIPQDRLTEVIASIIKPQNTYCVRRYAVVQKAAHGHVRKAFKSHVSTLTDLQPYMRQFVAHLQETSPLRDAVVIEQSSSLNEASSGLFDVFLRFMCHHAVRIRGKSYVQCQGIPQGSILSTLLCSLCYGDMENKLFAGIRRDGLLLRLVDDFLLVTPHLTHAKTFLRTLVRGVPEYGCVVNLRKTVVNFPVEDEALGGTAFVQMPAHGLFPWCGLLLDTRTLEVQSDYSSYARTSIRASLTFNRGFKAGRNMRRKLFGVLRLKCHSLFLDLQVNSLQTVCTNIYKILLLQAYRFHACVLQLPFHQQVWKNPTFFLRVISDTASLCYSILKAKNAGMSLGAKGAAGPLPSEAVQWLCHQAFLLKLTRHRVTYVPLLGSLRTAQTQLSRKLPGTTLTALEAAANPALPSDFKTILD
# T1 sequence (O60832 whole entry partner): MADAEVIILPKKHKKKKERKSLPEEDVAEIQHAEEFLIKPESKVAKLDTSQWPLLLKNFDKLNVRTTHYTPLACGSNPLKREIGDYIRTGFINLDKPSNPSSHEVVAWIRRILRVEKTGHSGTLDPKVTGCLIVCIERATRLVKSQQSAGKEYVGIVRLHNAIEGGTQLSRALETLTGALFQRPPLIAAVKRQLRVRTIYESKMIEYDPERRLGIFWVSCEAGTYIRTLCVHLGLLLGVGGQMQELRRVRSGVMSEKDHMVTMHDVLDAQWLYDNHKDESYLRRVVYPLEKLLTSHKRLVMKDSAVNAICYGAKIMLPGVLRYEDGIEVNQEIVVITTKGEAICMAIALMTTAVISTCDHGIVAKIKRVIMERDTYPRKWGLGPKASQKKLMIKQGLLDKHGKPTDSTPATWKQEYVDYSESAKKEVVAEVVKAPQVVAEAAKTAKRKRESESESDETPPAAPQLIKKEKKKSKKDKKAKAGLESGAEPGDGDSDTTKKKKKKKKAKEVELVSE
# T1 sequence (Q9NPE3 whole entry partner): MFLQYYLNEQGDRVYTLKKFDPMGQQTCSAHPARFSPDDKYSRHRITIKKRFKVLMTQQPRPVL
# T1 sequence (Q9NX24 whole entry partner): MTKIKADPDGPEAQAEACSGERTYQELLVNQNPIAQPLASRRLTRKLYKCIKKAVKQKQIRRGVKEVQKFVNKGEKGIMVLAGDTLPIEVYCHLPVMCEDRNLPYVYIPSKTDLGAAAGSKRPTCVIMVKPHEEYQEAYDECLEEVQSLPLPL
# T1 sequence (Q9NY12 whole entry partner): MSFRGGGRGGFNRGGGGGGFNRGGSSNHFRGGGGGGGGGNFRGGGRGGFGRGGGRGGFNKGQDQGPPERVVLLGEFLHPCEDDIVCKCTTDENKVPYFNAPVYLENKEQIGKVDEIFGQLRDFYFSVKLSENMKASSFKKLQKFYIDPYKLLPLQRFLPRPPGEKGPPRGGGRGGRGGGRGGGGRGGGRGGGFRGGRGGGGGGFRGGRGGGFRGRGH
# T1 sequence (Q9BUR4 whole entry partner): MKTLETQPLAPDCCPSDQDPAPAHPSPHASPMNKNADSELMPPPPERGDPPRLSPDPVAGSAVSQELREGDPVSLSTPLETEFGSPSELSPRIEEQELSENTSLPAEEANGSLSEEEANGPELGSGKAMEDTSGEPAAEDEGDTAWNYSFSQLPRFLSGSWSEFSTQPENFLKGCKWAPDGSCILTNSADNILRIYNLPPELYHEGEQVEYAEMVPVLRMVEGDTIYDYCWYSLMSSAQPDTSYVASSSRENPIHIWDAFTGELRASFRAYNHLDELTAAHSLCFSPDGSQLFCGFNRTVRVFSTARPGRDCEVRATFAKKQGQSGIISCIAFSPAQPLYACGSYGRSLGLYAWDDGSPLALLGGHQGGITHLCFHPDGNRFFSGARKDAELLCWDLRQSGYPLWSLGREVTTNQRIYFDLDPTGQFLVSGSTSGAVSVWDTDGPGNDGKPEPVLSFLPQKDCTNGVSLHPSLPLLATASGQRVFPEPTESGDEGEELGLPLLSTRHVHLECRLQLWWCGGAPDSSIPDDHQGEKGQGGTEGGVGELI
smiles,measurement,setting,value
CCCCCCCCCCCCCC=CC(O)C(CO)NC(=O)CCCCC[n+]1ccccc1 (stereo not drawn) [C6-Pyr-Cer],effect on the growth inhibition by GMZ,"UM-SCC-22A cells [1]; UM-SCC-22A, 1 μM with various concentrations of GMZ, 48 hr",enhanced the anti-proliferative effects of GMZ
same,"interaction with DOX, isobologram","UM-SCC-22A cells [1]; UM-SCC-22A, 25, 50 and 100 nM with DOX, 96 hr",decreased growth synergistically
same,fold more effective in inhibiting cell growth than conventional C6-ceramides,"UM-SCC-22A cells [1]; UM-SCC-22A, 96 hr",> 4 fold
same,optimum concentration for synergistic interaction with DOX,"UM-SCC-22A cells [1]; UM-SCC-22A, 96 hr",50 nM
same,pIC50,"UM-SCC-22A cells [1]; UM-SCC-22A, 96 hr, DMEM, read-out: IC50, cell growth",~6.52
same,pIC50,"UM-SCC-22A cells [1]; UM-SCC-22A, EpiLife medium, 96 hr, read-out: IC50, cell growth in EpiLife medium",< 5.70
same,fold more effective in squamous cell carcinoma cells than in non-cancerous fibroblasts or keratinocytes,UM-SCC-22A cells [1]; in vitro,> 4 fold
same,pIC50,UM-SCC-1 cells,6.52 to 6.60
same,pIC50,UM-SCC12 cells,6.52 to 6.60
same,pIC50,[2],< 6.00
same,pIC50,"[3]; HEK, EpiLife medium, 96 hr, read-out: IC50, cell growth in EpiLife medium",< 5.70
same,pIC50,"[3]; keratinocytes, DMEM, read-out: IC50, cell growth in DMEM",< 6.00
same,"apoptotic cell death, annexin V staining",UM-SCC-22A cells [4],did not show any detectable signal
same,inhibition of telomerase activity,"telomerase [5]; 100 nM, 96 hr",about 30%
same,inhibition of telomerase activity,"telomerase [5]; 250 nM, 96 hr",~50%
same,inhibition of telomerase activity,"telomerase [5]; 500 nM, 96 hr",~75%
same,inhibition of telomerase activity,"telomerase [5]; 48 hr, C6-Pyr-Cer 1 μM, GMZ 100 nM",30%
same,effect on telomerase activity when applied directly to the extracts,telomerase [6],no significant effect on telomerase activity
